For 14 molecules, IC50 results are on record in patent US9200005B2, “Inhibitor compounds of phosphodiesterase type 10A” (AbbVie Deutschland GmbH & Co. KG, priority 2013, dated 2015).

Where a name gives a salt, the structure may show the parent alone.

The target in this assay is PDE10A (UniProt Q9Y233). The assay can be described thus: Measurement of PDE activity (HTRF cAMP kit, recombinant PDE10A). The format is biochemical, human, rat and mouse. The settings on record: substrate 20 nM, 60 minutes at 29° C. The procedure: a) Measurement of PDE Activity
The recombinant PDE proteins are used in in vitro enzymatic reaction for measurement of PDE activity. These recombinant proteins, including PDE10A (human, rat and mouse PDE10) and isoforms of PDEs 1, 3, 4, and 5, were purchased from commercial vendor BPS Bioscience. The enzymatic activity of PDEs was determined by cAMP measurement kit from CisBio (IBA) using HTRF technology.
The PDE enzymatic reaction was carried out in assay buffer (20 mM Tris-HCl pH 7.5, 10 mM MgCl2, 0.1% bovine serum albumin) containing enzyme and substrate. […] The substrate cyclic nucleotide (cAMP or cGMP) concentration used in the assay was 20 nM for PDE10, and 100 nM for other PDEs. The inhibitory effect of compound was determined by incubating various concentration of inhibitor in the enzymatic assay. […] Next, the compound at varying concentration was mixed with PDE enzyme. The reaction was initiated by addition of cyclic nucleotide substrate, and incubated for 60 minutes at 29° C. The reaction was stopped by addition of lysis buffer from the assay kit. The cAMP-d2 and anti-cAMP cryptate in the lysis buffer detected the level of cAMP left from the PDE hydrolysis reaction. […] Thus, IC50 value of inhibitor can be obtained by plotting inhibitor concentration against PDE activity at that concentration.
With `Cc1cnc(Cl)c(Oc2nn(C)c(=O)c3c(-c4ccncc4)csc23)c1` [Example 90, 7-[(2-chloro-5-methylpyridin-3-yl)oxy]-5-methyl-3-(pyridin-4-yl)thieno[2,3-d]pyridazin-4(5H)-one trifluoroacetate], the IC50 (as a rule, the concentration at which inhibition is half-maximal) was less than 100 nM.
Take `Cn1nc(-c2cnn(CC(F)(F)F)c2)c2scc(-c3ccncc3)c2c1=O` [Example 100, 5-methyl-3-(pyridin-4-yl)-7-[1-(2,2,2-trifruoroethyl)-1H-pyrazol-4-yl]thieno[2,3-d]pyridazin-4(5H)-one bis(trifluoroacetate)]: the IC50 is less than 100 nM.
Regarding `COc1ccc(-c2nn(C)c(=O)c3c(-c4ccncc4)csc23)cc1OC` [Example 102, 7-(3,4-dimethoxyphenyl)-5-methyl-3-(pyridin-4-yl)thieno[2,3-d]pyridazin-4(5H)-one trifluoroacetate], the IC50 is less than 100 nM.
The same measure for `Cn1nc(-c2ccnc(F)c2)c2scc(-c3ccncc3)c2c1=O` [Example 104, 7-(2-fluoropyridin-4-yl)-5-methyl-3-(pyridin-4-yl)thieno[2,3-d]pyridazin-4(5H)-one bis(trifluoroacetate)]: 100 to 200 nM; for `Cn1nc(-c2cccc(Cl)c2)c2scc(-c3ccncc3)c2c1=O` [Example 105, 7-(3-chlorophenyl)-5-methyl-3-(pyridin-4-yl)thieno[2,3-d]pyridazin-4(5H)-one trifluoroacetate]: 200 to 500 nM; for `Cn1nc(-c2cccc(O)c2)c2scc(-c3ccncc3)c2c1=O` [Example 107, 7-(3-hydroxyphenyl)-5-methyl-3-(pyridin-4-yl)thieno[2,3-d]pyridazin-4(5H)-one trifluoroacetate (salt)]: less than 100 nM.
The same measure for `Cn1nc(-c2ccc(Cl)cc2)c2scc(-c3ccncc3)c2c1=O` [Example 110, 7-(4-chlorophenyl)-5-methyl-3-(pyridin-4-yl)thieno[2,3-d]pyridazin-4(5H)-one trifluoroacetate]: 200 to 500 nM; for `COc1cc(OC)cc(-c2nn(C)c(=O)c3c(-c4ccncc4)csc23)c1` [Example 111, 7-(3,5-dimethoxyphenyl)-5-methyl-3-(pyridin-4-yl)thieno[2,3-d]pyridazin-4(5H)-one trifluoroacetate]: 100 to 200 nM.
With `Cn1nc(-c2cccc(OC(F)(F)F)c2)c2scc(-c3ccncc3)c2c1=O` [Example 112, 5-methyl-3-(pyridin-4-yl)-7-[3-(trifluoromethoxy)phenyl]thieno[2,3-d]pyridazin-4(5H)-one trifluoroacetate], the IC50 was in the range of 200 to 500 nM.
As to `COc1ccccc1-c1nn(C)c(=O)c2c(-c3ccncc3)csc12` [Example 113, 7-(2-methoxyphenyl)-5-methyl-3-(pyridin-4-yl)thieno[2,3-d]pyridazin-4(5H)-one trifluoroacetate], the IC50 lay within 200 to 500 nM.
The same measure for `Cn1nc(-c2cccc(C(F)(F)F)c2)c2scc(-c3ccncc3)c2c1=O` [Example 114, 5-methyl-3-(pyridin-4-yl)-7-[3-(trifluoromethyl)phenyl]thieno[2,3-d]pyridazin-4(5H)-one trifluoroacetate]: 100 to 200 nM.
Then `Cn1nc(-c2ccccc2F)c2scc(-c3ccncc3)c2c1=O` [Example 115, 7-(2-fluorophenyl)-5-methyl-3-(pyridin-4-yl)thieno[2,3-d]pyridazin-4(5H)-one trifluoroacetate], with 200 to 500 nM; and `Cn1nc(-c2cccc(F)c2)c2scc(-c3ccncc3)c2c1=O` [Example 116, 7-(3-fluorophenyl)-5-methyl-3-(pyridin-4-yl)thieno[2,3-d]pyridazin-4(5H)-one trifluoroacetate], with 200 to 500 nM.
The same measure for `Cn1nc(-c2ccc(C(F)(F)F)cc2)c2scc(-c3ccncc3)c2c1=O` [Example 117, 5-methyl-3-(pyridin-4-yl)-7-[4-(trifluoromethyl)phenyl]thieno[2,3-d]pyridazin-4(5H)-one trifluoroacetate]: 100 to 200 nM.
